Columns and labels:
[1] = AUC (0 to infinity) in BALB/c mouse at 12.5 mg/kg, ip administered as liposome encapsulated form and measured upto 24 hrs by LC-MS/MS analysis; assay type: ADME, organism-based; conditions: in vivo
[2] = Selectivity index, ratio of IC50 for human LNCaP cells to IC50 for human U87 cells; assay type: functional
[3] = Terminal half life in BALB/c mouse at 25 mg/kg, ip administered as liposome encapsulated form and measured upto 24 hrs by LC-MS/MS analysis; assay type: ADME, organism-based; conditions: in vivo, read-out: beta t1/2 (converted)
[4] = Toxicity against BALB/c nude mouse xenografted with human U87 cells assessed as mortality at 12.5 to 50 mg/kg/day administered as liposome encapsulated form for 15 days; assay type: organism-based, U-87MG ATCC; conditions: in vivo, 360 h, dose 12.5-50 mg/kg/day, time 15 day
[5] = Terminal half life in BALB/c mouse at 12.5 mg/kg, ip administered as liposome encapsulated form and measured upto 24 hrs by LC-MS/MS analysis; assay type: ADME, organism-based; conditions: in vivo, read-out: beta t1/2 (converted)
[6] = Tmax in BALB/c mouse at 12.5 mg/kg, ip administered as liposome encapsulated form measured upto 24 hrs by LC-MS/MS analysis; assay type: ADME, organism-based; conditions: in vivo
[7] = Terminal half life in BALB/c mouse at 50 mg/kg, ip administered as liposome encapsulated form and measured upto 24 hrs by LC-MS/MS analysis; assay type: ADME, organism-based; conditions: in vivo, read-out: beta t1/2 (converted)
LNCaP = test: Antiproliferative activity against human LNCaP cells assessed as reduction in cell viability incubated for 72 hrs by MTT assay; assay type: functional, cell-based
[8] = Toxicity against BALB/c nude mouse xenografted with human U87 cells assessed as change in body weight at 12.5 to 50 mg/kg/day administered as liposome encapsulated form for 15 days; assay type: organism-based, U-87MG ATCC; conditions: in vivo, 360 h, dose 12.5-50 mg/kg/day, time 15 day
[9] = AUC (0 to infinity) in BALB/c mouse at 50 mg/kg, ip administered as liposome encapsulated form and measured upto 24 hrs by LC-MS/MS analysis; assay type: ADME, organism-based; conditions: in vivo
A549 = test: Antiproliferative activity against human A549 cells assessed as reduction in cell viability incubated for 72 hrs by MTT assay; assay type: functional, cell-based; conditions: A549, 72 h
MKN-45 = test: Antiproliferative activity against human MKN-45 cells assessed as reduction in cell viability incubated for 72 hrs by MTT assay; assay type: functional, cell-based; conditions: MKN-45, 72 h
[10] = Tmax in BALB/c mouse at 50 mg/kg, ip administered as liposome encapsulated form and measured upto 24 hrs by LC-MS/MS analysis; assay type: ADME, organism-based; conditions: in vivo
[11] = AUC (0 to t) in BALB/c mouse at 12.5 mg/kg, ip administered as liposome encapsulated form and measured upto 24 hrs by LC-MS/MS analysis; assay type: ADME, organism-based; conditions: in vivo
[12] = AUC (0 to t) in BALB/c mouse at 25 mg/kg, ip administered as liposome encapsulated form and measured upto 24 hrs by LC-MS/MS analysis; assay type: ADME, organism-based; conditions: in vivo
[13] = biological target: T1, Short transient receptor potential channel 3 (Homo sapiens, UniProt Q13507); test: Antagonist activity at human TRPC3 stably expressed in HEK293 cells inhibition of calcium influx by calcium fluorescence assay; assay type: cell-based
T1 sequence (Q13507 whole entry): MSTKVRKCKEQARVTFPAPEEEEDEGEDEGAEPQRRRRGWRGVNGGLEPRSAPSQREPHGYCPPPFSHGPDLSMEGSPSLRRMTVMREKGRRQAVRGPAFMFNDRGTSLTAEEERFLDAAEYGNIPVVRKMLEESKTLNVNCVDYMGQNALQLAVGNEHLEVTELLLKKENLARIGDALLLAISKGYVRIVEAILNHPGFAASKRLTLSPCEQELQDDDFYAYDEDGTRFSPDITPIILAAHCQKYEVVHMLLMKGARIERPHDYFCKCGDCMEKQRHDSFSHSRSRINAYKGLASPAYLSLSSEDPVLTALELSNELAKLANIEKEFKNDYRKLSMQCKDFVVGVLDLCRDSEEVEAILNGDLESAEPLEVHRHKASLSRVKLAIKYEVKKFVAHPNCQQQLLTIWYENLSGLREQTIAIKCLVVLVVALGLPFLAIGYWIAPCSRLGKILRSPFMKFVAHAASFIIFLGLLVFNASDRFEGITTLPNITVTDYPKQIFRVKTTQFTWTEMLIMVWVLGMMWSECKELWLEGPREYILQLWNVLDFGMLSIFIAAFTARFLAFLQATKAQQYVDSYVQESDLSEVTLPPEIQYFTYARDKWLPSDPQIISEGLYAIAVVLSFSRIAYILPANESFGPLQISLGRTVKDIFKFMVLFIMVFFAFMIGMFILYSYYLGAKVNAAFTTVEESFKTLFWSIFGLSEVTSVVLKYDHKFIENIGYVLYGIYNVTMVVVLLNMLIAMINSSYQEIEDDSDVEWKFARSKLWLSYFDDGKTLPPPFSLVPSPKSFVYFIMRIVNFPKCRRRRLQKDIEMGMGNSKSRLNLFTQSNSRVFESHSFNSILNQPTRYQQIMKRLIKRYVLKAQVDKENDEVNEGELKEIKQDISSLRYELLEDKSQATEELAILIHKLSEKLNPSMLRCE

NCCN(Cc1ccc2ccccc2c1)c1nc(C(=O)Nc2ccc(O)cc2)cs1
AUC(0-inf) [1]: 2790 ng·h/mL | Ratio IC50 [2]: 2 | half-life [3]: 3.4 h | Activity [4]: Non-Toxic | half-life [5]: 6.8 h | Tmax [6]: 4 h | half-life [7]: 3.8 h | IC50 (LNCaP): 8.3 µM | Activity [8]: Non-Toxic | AUC(0-inf) [9]: 16800 ng·h/mL | IC50 (A549): 21.1 µM | IC50 (MKN-45): 11 µM | Tmax [10]: 4 h | AUC(0-t) at 24 h [11]: 2550 ng·h/mL | AUC(0-t) at 24 h [12]: 6840 ng·h/mL | IC50 [13]: 2.4 µM

Source: ChEMBL document CHEMBL5518193, “Discovery of N-alkyl-N-benzyl thiazoles as novel TRPC antagonists for the treatment of glioblastoma multiforme” (Eur J Med Chem, 2024)
